# The source made the active and inactive calls. The calls are words filed in the database; no cut-off is given here.
# Legend:
# Helicoverpa armigera [1] = experiment: Antifeedant activity against third-instar larval stage of Helicoverpa armigera fed with artificial diet containing compound assessed as relative growth rate at 8.21 mg/ml after 3 days (reference value: 0.97 +/- 0.13 mg/mg/day); type: functional
# Helicoverpa armigera [2] = experiment: Antifeedant activity against third-instar larval stage of Helicoverpa armigera fed with artificial diet containing compound assessed as efficiency index of ingested food at 8.21 mg/ml after 3 days (reference value: 52%); type: functional
# Spodoptera litura [3] = experiment: Antifeedant activity against third-instar larval stage of Spodoptera litura fed with artificial diet containing compound assessed as relative consumption rate at 5.9 mg/ml after 3 days (reference value: 2.13 +/- 0.18 mg/mg/day); type: functional
# Helicoverpa armigera [4] = experiment: Insecticidal activity against second-instar larval stage of Helicoverpa armigera fed with artificial diet containing compound assessed as growth inhibition after 7 days; type: functional, organism-based; settings: for EC50: 168 h
# Spodoptera litura [5] = experiment: Antifeedant activity against third-instar larval stage of Spodoptera litura fed with artificial diet containing compound assessed as relative growth rate at 5.9 mg/ml after 3 days (reference value: 1.37 +/- 0.12 mg/mg/day); type: functional
# Spodoptera litura [6] = experiment: Insecticidal activity against second-instar larval stage of Spodoptera litura fed with artificial diet containing compound assessed as growth inhibition after 7 days; type: functional, organism-based; settings: for EC50: 168 h
# Helicoverpa armigera [7] = experiment: Insecticidal activity against second-instar larval stage of Helicoverpa armigera fed with artificial diet containing compound assessed as mortality after 7 days; type: functional; settings: 168 h
# Spodoptera litura [8] = experiment: Antifeedant activity against third-instar larval stage of Spodoptera litura fed with artificial diet containing compound assessed as efficiency index of ingested food at 5.9 mg/ml after 3 days (reference value: 64.5%); type: functional
# Helicoverpa armigera [9] = experiment: Antifeedant activity against third-instar larval stage of Helicoverpa armigera fed with artificial diet containing compound assessed as relative consumption rate at 8.21 mg/ml after 3 days (reference value: 1.88 +/- 0.14 mg/mg/day); type: functional
# Spodoptera litura [10] = experiment: Insecticidal activity against second-instar larval stage of Spodoptera litura fed with artificial diet containing compound assessed as mortality after 7 days; type: functional; settings: 168 h
# Spodoptera litura [11] = experiment: Antifeedant activity against third-instar larval stage of Spodoptera litura fed with artificial diet containing compound assessed as relative growth rate at 3.98 mg/ml after 3 days (reference value: 1.37 +/- 0.12 mg/mg/day); type: functional
# Spodoptera litura [12] = experiment: Antifeedant activity against third-instar larval stage of Spodoptera litura fed with artificial diet containing compound assessed as efficiency index of ingested food at 3.98 mg/ml after 3 days (reference value: 64.5%); type: functional
# Helicoverpa armigera [13] = experiment: Antifeedant activity against third-instar larval stage of Helicoverpa armigera fed with artificial diet containing compound assessed as relative growth rate at 3.94 mg/ml after 3 days (reference value: 0.97 +/- 0.13 mg/mg/day); type: functional
# Spodoptera litura [14] = experiment: Insecticidal activity against second-instar larval stage of Spodoptera litura assessed as mortality applied as spray after 72 hr; type: functional
# Helicoverpa armigera [15] = experiment: Insecticidal activity against second-instar larval stage of Helicoverpa armigera assessed as mortality applied as spray after 72 hr; type: functional
# Spodoptera litura [16] = experiment: Antifeedant activity against third-instar larval stage of Spodoptera litura fed with artificial diet containing compound assessed as relative consumption rate at 3.98 mg/ml after 3 days (reference value: 2.13 +/- 0.18 mg/mg/day); type: functional
# Helicoverpa armigera [17] = experiment: Antifeedant activity against third-instar larval stage of Helicoverpa armigera fed with artificial diet containing compound assessed as relative consumption rate at 3.94 mg/ml after 3 days (reference value: 1.88 +/- 0.14 mg/mg/day); type: functional
# Helicoverpa armigera [18] = experiment: Antifeedant activity against third-instar larval stage of Helicoverpa armigera fed with artificial diet containing compound assessed as efficiency index of ingested food at 3.94 mg/ml after 3 days (reference value: 52%); type: functional
# Spodoptera litura [19] = experiment: Antifeedant activity against third-instar larval stage of Spodoptera litura fed with artificial diet containing compound assessed as relative growth rate at 6.25 mg/ml after 3 days (reference value: 1.37 +/- 0.12 mg/mg/day); type: functional
# Helicoverpa armigera [20] = experiment: Antifeedant activity against third-instar larval stage of Helicoverpa armigera fed with artificial diet containing compound assessed as efficiency index of ingested food at 7.15 mg/ml after 3 days (reference value: 52%); type: functional
# Helicoverpa armigera [21] = experiment: Antifeedant activity against third-instar larval stage of Helicoverpa armigera fed with artificial diet containing compound assessed as relative growth rate at 7.15 mg/ml after 3 days (reference value: 0.97 +/- 0.13 mg/mg/day); type: functional
# Spodoptera litura [22] = experiment: Antifeedant activity against third-instar larval stage of Spodoptera litura fed with artificial diet containing compound assessed as efficiency index of ingested food at 6.25 mg/ml after 3 days (reference value: 64.5%); type: functional
# Helicoverpa armigera [23] = experiment: Antifeedant activity against third-instar larval stage of Helicoverpa armigera fed with artificial diet containing compound assessed as relative consumption rate at 7.15 mg/ml after 3 days (reference value: 1.88 +/- 0.14 mg/mg/day); type: functional
# Spodoptera litura [24] = experiment: Antifeedant activity against third-instar larval stage of Spodoptera litura fed with artificial diet containing compound assessed as relative consumption rate at 6.25 mg/ml after 3 days (reference value: 2.13 +/- 0.18 mg/mg/day); type: functional
# Helicoverpa armigera [25] = experiment: Antifeedant activity against third-instar larval stage of Helicoverpa armigera fed with artificial diet containing compound assessed as relative growth rate at 6.02 mg/ml after 3 days (reference value: 0.97 +/- 0.13 mg/mg/day); type: functional
# Spodoptera litura [26] = experiment: Antifeedant activity against third-instar larval stage of Spodoptera litura fed with artificial diet containing compound assessed as relative consumption rate at 3.72 mg/ml after 3 days (reference value: 2.13 +/- 0.18 mg/mg/day); type: functional
# Helicoverpa armigera [27] = experiment: Insecticidal activity against second-instar larval stage of Helicoverpa armigera assessed as increase in mortality applied as spray at 1 to 10 mg/ml after 72 hr; type: functional, organism-based
# Spodoptera litura [28] = experiment: Antifeedant activity against third-instar larval stage of Spodoptera litura fed with artificial diet containing compound assessed as efficiency index of ingested food at 3.72 mg/ml after 3 days (reference value: 64.5%); type: functional
# Helicoverpa armigera [29] = experiment: Antifeedant activity against third-instar larval stage of Helicoverpa armigera fed with artificial diet containing compound assessed as efficiency index of ingested food at 6.02 mg/ml after 3 days (reference value: 52%); type: functional
# Spodoptera litura [30] = experiment: Antifeedant activity against third-instar larval stage of Spodoptera litura fed with artificial diet containing compound assessed as relative growth rate at 3.72 mg/ml after 3 days (reference value: 1.37 +/- 0.12 mg/mg/day); type: functional
# Helicoverpa armigera [31] = experiment: Antifeedant activity against third-instar larval stage of Helicoverpa armigera fed with artificial diet containing compound assessed as relative consumption rate at 6.02 mg/ml after 3 days (reference value: 1.88 +/- 0.14 mg/mg/day); type: functional
# Spodoptera litura [32] = experiment: Insecticidal activity against second-instar larval stage of Spodoptera litura assessed as increase in mortality applied as spray at 1 to 10 mg/ml after 72 hr; type: functional, organism-based
compound,measurement,setting,value
CCCC(=O)OCC(C)OC(=O)CCC (configuration not stated),Activity,Helicoverpa armigera [1],0.67 mg/mg/day
same,ECI,Helicoverpa armigera [2],38.2%
same,Activity,Spodoptera litura [3],1.98 mg/mg/day
same,growth inhibition (GI),Helicoverpa armigera [4],Dose-dependent effect
same,EC50,Helicoverpa armigera [4],5670 µg/mL
same,Activity,Spodoptera litura [5],1.04 mg/mg/day
same,growth inhibition (GI),Spodoptera litura [6],Dose-dependent effect
same,EC50,Spodoptera litura [6],4210 µg/mL
same,LC50,Helicoverpa armigera [7],2000 µg/mL
same,ECI,Spodoptera litura [8],12%
same,Activity,Helicoverpa armigera [9],1.77 mg/mg/day
same,LC50,Spodoptera litura [10],2000 µg/mL
CCCCCCCC(=O)OCCOC(=O)CCCCCCC [ETHYLENE GLYCOL DIOCTANOATE],Activity,Spodoptera litura [11],0.72 mg/mg/day
same,growth inhibition (GI),Helicoverpa armigera [4],Dose-dependent effect
same,EC50,Helicoverpa armigera [4],2080 µg/mL
same,ECI,Spodoptera litura [12],8%
same,Activity,Helicoverpa armigera [13],0.69 mg/mg/day
same,LC50,Spodoptera litura [14],6100 µg/mL
same,growth inhibition (GI),Spodoptera litura [6],Dose-dependent effect
same,EC50,Spodoptera litura [6],1980 µg/mL
same,LC50,Helicoverpa armigera [15],6500 µg/mL
same,LC50,Helicoverpa armigera [7],3140 µg/mL
same,Activity,Spodoptera litura [16],2 mg/mg/day
same,LC50,Spodoptera litura [10],2000 µg/mL
same,Activity,Helicoverpa armigera [17],1.9 mg/mg/day
same,ECI,Helicoverpa armigera [18],36.5%
CCCCCCCC(=O)OCC(C)OC(=O)CCCCCCC (configuration not stated),Activity,Spodoptera litura [19],0.88 mg/mg/day
same,ECI,Helicoverpa armigera [20],37.9%
same,Activity,Helicoverpa armigera [21],0.7 mg/mg/day
same,ECI,Spodoptera litura [22],18%
same,growth inhibition (GI),Helicoverpa armigera [4],Dose-dependent effect
same,EC50,Helicoverpa armigera [4],4380 µg/mL
same,Activity,Helicoverpa armigera [23],1.86 mg/mg/day
same,Activity,Spodoptera litura [24],2.21 mg/mg/day
same,growth inhibition (GI),Spodoptera litura [6],Dose-dependent effect
same,EC50,Spodoptera litura [6],3820 µg/mL
same,LC50,Helicoverpa armigera [7],2000 µg/mL
same,LC50,Spodoptera litura [10],2000 µg/mL
CCCC(=O)OCCOC(=O)CCC [ETHYLENE GLYCOL DIBUTANOATE],Activity,Helicoverpa armigera [25],0.55 mg/mg/day
same,Activity,Spodoptera litura [26],2.04 mg/mg/day
same,growth inhibition (GI),Helicoverpa armigera [4],Dose-dependent effect
same,EC50,Helicoverpa armigera [4],2820 µg/mL
same,Activity,Helicoverpa armigera [27],Active
same,growth inhibition (GI),Spodoptera litura [6],Dose-dependent effect
same,EC50,Spodoptera litura [6],1850 µg/mL
same,ECI,Spodoptera litura [28],2%
same,ECI,Helicoverpa armigera [29],32.4%
same,Activity,Spodoptera litura [30],0.74 mg/mg/day
same,LC50,Helicoverpa armigera [7],2000 µg/mL
same,Activity,Helicoverpa armigera [31],1.7 mg/mg/day
same,LC50,Spodoptera litura [10],2000 µg/mL
same,Activity,Spodoptera litura [32],Active

# Source: ChEMBL document CHEMBL3045652, “Biorational glycol diesters as dietary toxins versus bioefficacy of sucrose octanoate against lepidopteran larvae” (Ind Crops Prod, 2012)
